The test system of one data set is Pimelobacter simplex. Description: Solvent and steroid exposure growth curves. As to conditions: P. simplex, starting OD 0.005, constant solvent.
Data set [1] has as its target Pimelobacter simplex PinR (AIY20223.2; SEQ ID NO: 1), his-tagged (AIY-his6). Description: QD-FRET steroid sensor (QD-PinR + DNA-Cy5), steroid-induced TF-DNA unbinding. In kind it is biochemical. The protocol: Fluorescent spectra were analyzed using MATLAB (Mathworks) and were fitted with a sum of 2 Gaussians (D=QD: FWHM=27 nm, λmax=607 nm; A=DNA-Cy5: FWHM=40 nm, λmax=669 nm). The area of each Gaussian was extracted and FD and FA are obtained respectively for the fluorescence of QD (donor) and Cy5 (acceptor).
Raw dose-response curves were obtained by plotting FA/FD as a function of the steroid concentration. Sensor output is the normalization of the fluorescent spectra of the donor and acceptor according to the following equation: […]
Non-normalized dose-response were fitted with Origin Pro 8 software with the non-linear equation: […]
The cross-reactivity of progesterone regarding the different steroids was calculated with the following equation: […]
CdSe/CdS/ZnS QDs were coated with a zwitterionic polymer bearing histamine anchoring functions (P1, SI). Once the hydrophobic QDs were transferred into H2O using a biphasic ligand exchange, his-tagged TFs were self-assembled on the QD surface to produce the QD-TF. Addition of the double stranded, Cy5-labeled TF-binding sequence completed probe assembly as the oligo binds to the TF in the absence of progesterone (PRG). The molar ratios of the QD, TF, and DNA in the sensor were controlled through the stoichiometric ratios of the mixed parts.
Two fluorescent spectra were recorded, one from the QDs and one from the Cy5 due to the FRET.
First, the DNA1 (most binding sequence) has been used to build the first biosensor, named sensor 1. For this sensor, a ratio of QD/TF/DNA of 1/4/18 was chosen. […] In order to homogenize the fluorescent signals in between batches and different sensor variations, FA/FD was normalized to give the signal output. Signal output is then plotted against PRG concentration to give a dose-response curve (FIG. 9C) This curve was fitted with the non-linear equation XX to obtain the half-maximal inhibitory concentration (IC50) (Table 13).
Description for a typical experiment, using a molar ratio of QD/TF/DNA=1/4/18. QDs in (275 uL, 0.15 uM in HEPES 1×, pH 7.6 with 1% BSA) were mixed with AIY-his6 (275 uL, 0.6 uM in HEPES 1× pH 7.6) at room temperature for 45 min. Then, the double-stranded DNA labelled with a Cy5 fluorescent probe at the 3′ and 5′ ends (275 uL, 2.7 uM in HEPES 1× pH 7.6) was added to the mixture. After 30 min, 220 uL of HEPES 1× pH 7.5 and 330 uL of 5× binding buffer (25 mM MgCl2, 25% glycerol, and 250 mg/L Invitrogen™ UltraPure™ Salmon Sperm DNA in Tris-HCl 0.1M) were added and the mixture is left 15 more min at RT.
50 uL of the sensor (QD/TF/DNA) was then splitted in 3×9 centrifuge tubes to which 10 uL of progesterone at the desired concentration is added. As such, the final concentration of QD/TF/DNA for the measurements is 25 nM/100 nM/450 nM. A 384 well plate was filled with 60 uL of each solution. The fluorescence intensity was monitored on a spectrofluorimeter from 535 nm to 800 nm exciting at 400 nm, equipped with a 450 nm long-pass filter in emission.

Read-outs that look alike come from different tables or passages of the source.

With `CC(=O)[C@H]1CC[C@H]2[C@@H]3CCC4=CC(=O)CC[C@]4(C)[C@H]3CC[C@]12C` [PRG, Progesterone], the “highest steroid concentration exhibiting normal growth profile” value in the data set on Pimelobacter simplex was 21.88 µM. The IC50 came out at 460 ± 20 nM in data set [1] (DNA1, QD/TF/DNA 1/4/18, read-out: X0); 370 ± 10 nM in data set [1] (DNA2, QD/TF/DNA 1/4/18, read-out: X0); 210 nM in data set [1] (DNA 3, QD/TF/DNA 1/1/2, read-out: X0); 350 nM in data set [1] (DNA 3, QD/TF/DNA 1/1/18, read-out: X0); 270 nM in data set [1] (DNA 3, QD/TF/DNA 1/2/2, read-out: X0); 410 nM in data set [1] (DNA 3, QD/TF/DNA 1/2/18, read-out: X0). The IC50 in data set [1] (DNA 3, QD/TF/DNA 1/4/2, read-out: X0) amounted to 200 nM; in data set [1] (DNA 3, QD/TF/DNA 1/4/18 (Table 11), read-out: X0) it was 290 nM; in data set [1] (DNA3, QD/TF/DNA 1/4/18, read-out: X0), 290 ± 20 nM; in data set [1] (DNA 3, QD/TF/DNA 1/10/18, read-out: X0) it was 390 nM; in data set [1] (DNA 3, QD/TF/DNA 1/16/18, read-out: X0) it was 440 nM; in data set [1] (DNA 4, QD/TF/DNA 1/1/4, read-out: X0) it was 49 ± 12 nM. Moreover, the IC50 in data set [1] (DNA 4, QD/TF/DNA 1/1/18, read-out: X0) was determined as 74 ± 18 nM; in data set [1] (DNA 4, QD/TF/DNA 1/4/9, read-out: X0), 140 ± 14 nM; in data set [1] (DNA 4, QD/TF/DNA 1/4/18 (Table 12), read-out: X0), 150 ± 12 nM; in data set [1] (DNA4, QD/TF/DNA 1/4/18, read-out: X0), 150 ± 10 nM; in data set [1] (DNA 4, QD/TF/DNA 1/16/8, read-out: X0), 380 ± 16 nM; in data set [1] (sensor 2 (DNA 2, QD/TF/DNA=1/4/18), read-out: IC50), 133 ± 9 nM. For the same molecule, the IC50 in data set [1] (sensor 3 (DNA 2, QD/TF/DNA=1/1/18), read-out: IC50) came to 57 ± 3 nM.

Values taken from patent publication US11360104B2, “Microbial-based biosensors” (TRUSTEES OF BOSTON UNIVERSITY, priority 2017, dated 2022).
